# Patent US20160237059A1, “HETEROCYCLIC SUBSTITUTED TRIFLUOROMETHYL PYRIMIDINONES AND THEIR USE” (BAYER PHARMA AKTIENGESELLSCHAFT, priority 2013, published 2016)
# Assays:
# murine CCR2 = target: T1, murine CCR2 (Mus musculus, UniProt P51683); experiment: Functional β-arrestin recruiting test with murine MCP-1 (B-2b); type: cell-based; conditions: U2OS β-arrestin cell line transfected with murine CCR2; agonist murine MCP-1; in some cases means of several determinations
# T1 construct: host or cells: U2OS β-arrestin cell line
# T1 sequence (P51683 whole entry): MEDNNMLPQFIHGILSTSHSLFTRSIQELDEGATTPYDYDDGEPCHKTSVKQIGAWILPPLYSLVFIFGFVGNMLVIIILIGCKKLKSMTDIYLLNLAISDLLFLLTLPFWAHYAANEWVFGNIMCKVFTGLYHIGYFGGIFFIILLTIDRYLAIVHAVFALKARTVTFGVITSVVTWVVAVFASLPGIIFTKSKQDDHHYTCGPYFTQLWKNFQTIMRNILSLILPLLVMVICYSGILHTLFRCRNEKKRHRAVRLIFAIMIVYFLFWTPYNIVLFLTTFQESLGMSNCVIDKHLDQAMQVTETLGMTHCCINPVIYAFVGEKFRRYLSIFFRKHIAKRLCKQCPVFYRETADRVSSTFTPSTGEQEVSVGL
# Experimental: The antagonistic action of test substances on CCR2 was determined in a β-arrestin test. The PathHunter β-arrestin GPCR test system (DiscoveRx Corporation, Ltd.) is a cell-based functional method for detecting binding of β-arrestin to an activated receptor. The molecular basis is a […] complementation measured by the enzymatic conversion of a chemiluminescent substrate. The test cell used was a U2OS β-arrestin cell line transfected with murine CCR2 (93-0543C3, DiscoveRx Corporation, Ltd.).
# (§1) The test substances were dissolved in dimethyl sulphoxide (DMSO) at a concentration of 10 mM and serially diluted with DMSO in steps of 1:3.16 for a 10-point dose/activity analysis. According to the desired test concentrations, the substances were pre-diluted in Tyrode with 2 mM CaCl2 and 0.05% BSA.
# The cells, cultivated in MEM Eagle (supplemented with 10% FCS, 50 U/ml of penicillin, 50 μg/ml of streptomycin, 250 μg/ml of hygromycin and 500 μg/ml of geniticin), were sown at 2000 cells/25 μl in 384 well, μCLEAR/black cell culture plates from Greiner (#781092) and incubated at 37° C. for 24 h. The sowing medium consisted of Opti-MEM (supplemented with 1% FCS, 50 U/ml of penicillin and 50 μg/ml of streptomycin). The cells were pre-incubated for 10 min with 10 μl of the test substances diluted in buffer, and 10 μl of agonist solution [human MCP-1 (PeproTech, #300-04) in Tyrode with 0.05% BSA) were then added. The human MCP-1 was employed at the concentration which corresponds to the EC50 which had been determined in a preliminary test (usually about 3 nM). After 90 min of incubation at 37° C., the solution was removed, and recruitment of β-arrestin to CCR2 was detected with the aid of the PathHunter detection reagent (93-001, DiscoveRx Corporation, Ltd.) according to the instructions of the manufacturer. Luminescence was measured after an incubation time of 60 min using a proprietary luminescence imaging measuring instrument. The molar concentration of the test substance which caused 50% inhibition of the MCP-1 effect (IC50) was determined using a 4-parameter logistic function (Hill function).
# The test was carried out in a manner identical to that described above under B-2a, but using murine MCP-1 (PeproTech, #250-10) as agonist.
# human CCR2 = target: T2, human CCR2 (Homo sapiens, UniProt P41597); experiment: Functional Ca2+ release test (B-1); type: cell-based; conditions: Chem-1 cell line transfected with human CCR2; 50% inhibition of the MCP-1 effect, MCP-1 at EC50 (about 5 nM); in some cases means of several determinations
# T2 construct: host or cells: Chem-1 cell line
# T2 sequence (P41597 1-360 isoform P41597-2): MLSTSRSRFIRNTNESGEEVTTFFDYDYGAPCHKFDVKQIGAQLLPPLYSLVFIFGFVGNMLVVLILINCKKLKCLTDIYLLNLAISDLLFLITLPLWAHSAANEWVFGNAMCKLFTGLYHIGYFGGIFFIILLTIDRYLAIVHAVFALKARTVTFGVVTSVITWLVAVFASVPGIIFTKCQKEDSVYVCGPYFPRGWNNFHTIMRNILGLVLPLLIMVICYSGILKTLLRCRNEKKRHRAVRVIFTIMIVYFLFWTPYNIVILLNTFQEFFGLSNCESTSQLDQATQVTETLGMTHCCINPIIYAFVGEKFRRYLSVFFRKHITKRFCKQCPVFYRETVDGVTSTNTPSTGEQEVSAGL
# Experimental: The antagonistic action of test substances on CCR2 was determined in a functional Ca^2+ release test. Binding of CCL2/MCP-1 to CCR2 leads to a change in the conformation of the receptor resulting in Gi/Gq protein activation and intracellular signal cascade. This involves, inter alia, an intracellular Ca^2+ release. The test cell used was a Chem-1 cell line transfected with human CCR2 (ChemiSCREEN™ CCR2B Calcium-Optimized FLIPR Cell Line, Merck Millipore).
# as §1
# The cells, cultivated in DMEM high glucose [supplemented with 10% FCS, 1 mM pyruvate, 15 mM HEPES, 500 μg/ml geniticin and non-essential amino acids (NEAA)], were sown at 5000 cells/25 μl in 384 well, μCLEAR/black cell culture plates from Greiner (#781092) and incubated at 37° C. for 24 h. The sowing medium consisted of DMEM high glucose [supplemented with 5% FCS, 1 mM pyruvate, 15 mM HEPES, 50 U/ml penicillin, 50 μg/ml streptomycin and non-essential amino acids (NEAA)]. The medium was then removed and the cells were charged for 60 min at 37° C. with Fluo-4 dye [25 μl Tyrode with 3 μM Fluo-4 AM (1 mM DMSO stock solution), 0.4 mg/ml Brilliant Black, 2.5 mM probenicid, 0.03% Pluronic F-127]. The cells were pre-incubated for 10 min with 10 μl of the test substances diluted in buffer, and 20 μl of agonist solution (MCP-1 in Tyrode with 0.05% BSA) were then added. MCP-1 was employed at the concentration which corresponds to the EC50 which had been determined in a preliminary test (usually about 5 nM). Ca^2+ release was monitored over a period of 120 s in 1 s increments in a proprietary fluorescence imaging reader. The molar concentration of the test substance which caused 50% inhibition of the MCP-1 effect (IC50) was determined using a 4-parameter logistic function (Hill function).
Compound,IC50 (murine CCR2) [nM],IC50 (human CCR2) [nM]
O=c1[nH]c(-c2ncccc2OC(F)(F)F)nc(C(F)(F)F)c1Oc1ccc(Cl)c(Cl)c1 [Example 203],423,15
"COc1conc1-c1nc(C(F)(F)F)c(Oc2ccc(Cl)c(Cl)c2)c(=O)[nH]1 [Example 179, 5-(3,4-dichlorophenoxy)-2-(4-methoxy-1,2-oxazol-3-yl)-6-(trifluoromethyl)pyrimidin-4(3H)-one]",73,1.8
"CNc1ccnc(-c2nc(C(F)(F)F)c(Oc3ccc(Cl)c(C(F)(F)F)c3)c(=O)[nH]2)c1 [Example 169, 5-[4-chloro-3-(trifluoromethyl)phenoxy]-2-[4-(methylamino)pyridin-2-yl]-6-(trifluoromethyl)pyrimidin-4(3H)-one]",624,36
"COc1c[nH]nc1-c1nc(C(F)(F)F)c(Oc2ccc(Cl)c(C(F)(F)F)c2)c(=O)[nH]1 [Example 214, 5-[4-chloro-3-(trifluoromethyl)phenoxy)-2-(4-methoxy-1H-pyrazol-3-yl)-6-(trifluoromethyl)pyrimidin-4(3H)-one]",8.5,0.6
CC(=O)Nc1ccc(-c2nc(C(F)(F)F)c(Oc3ccc(Cl)c(C(F)(F)F)c3)c(=O)[nH]2)nc1 [Example 199],110,0.6
CCCc1cc(-c2nc(C(F)(F)F)c(Oc3ccc(Cl)c(Cl)c3)c(=O)[nH]2)no1 [Example 215],1150,7.9
COc1ccc2c(-c3nc(C(F)(F)F)c(Oc4ccc(Cl)c(Cl)c4)c(=O)[nH]3)noc2c1 [Example 208],9580,77
"CCc1cccc(-c2nc(C(F)(F)F)c(Oc3ccc(Cl)c(Cl)c3)c(=O)[nH]2)n1 [Example 162, 2-(6-ethylpyridin-2-yl)-5-(3,4-dichlorophenoxy)-6-(trifluoromethyl)pyrimidin-4(3H)-one]",1070,1.9
CCc1cc(-c2nc(C(F)(F)F)c(Oc3ccc(Cl)c(Cl)c3)c(=O)[nH]2)no1 [Example 218],584,3.9
"COc1ccnc(-c2nc(C(F)(F)F)c(Oc3ccc(Cl)c(Cl)c3)c(=O)[nH]2)c1 [Example 147, 5-(3,4-dichlorophenoxy)-2-(4-methoxypyridin-2-yl)-6-(trifluoromethyl)pyrimidin-4(3H)-one]",373,121
"CNc1ccnc(-c2nc(C(F)(F)F)c(Oc3ccc(Cl)c(Cl)c3)c(=O)[nH]2)c1 [Example 168, 5-(3,4-dichlorophenoxy)-2-[4-(methylamino)pyridin-2-yl]-6-(trifluoromethyl)pyrimidin-4(3H)-one]",1210,25
O=c1[nH]c(-c2cc(C3CC3)on2)nc(C(F)(F)F)c1Oc1ccc(Cl)c(C(F)(F)F)c1 [Example 220],775,3.5
"Cn1nc(-c2nc(C(F)(F)F)c(Oc3ccc(Cl)c(C(F)(F)F)c3)c(=O)[nH]2)c2c(Cl)cccc21 [Example 142, 2-(4-chloro-1-methyl-1H-indazol-3-yl)-5-[4-chloro-3-(trifluoromethyl)phenoxy]-6-(trifluoromethyl)pyrimidin-4(3H)-one]",246,3.3
"COc1cncnc1-c1nc(C(F)(F)F)c(Oc2ccc(Cl)c(C(F)(F)F)c2)c(=O)[nH]1 [Example 120, 5-[4-chloro-3-(trifluoromethyl)phenoxy]-5′-methoxy-6-(trifluoromethyl)-2,4′-bipyrimidin-4(3H)-one]",44,0.5
"COc1conc1-c1nc(C(F)(F)F)c(Oc2ccc(Cl)c(C(F)(F)F)c2)c(=O)[nH]1 [Example 180, 5-[4-chloro-3-(trifluoromethyl)phenoxy]-2-(4-methoxy-1,2-oxazol-3-yl)-6-(trifluoromethyl)pyrimidin-4(3H)-one]",105,1
"Cc1ccc(-c2nc(C(F)(F)F)c(Oc3ccc(Cl)c(C(F)(F)F)c3)c(=O)[nH]2)nc1C [Example 158, 5-[4-chloro-3-(trifluoromethyl)phenoxy]-2-(5,6-dimethylpyridin-2-yl)-6-(trifluoromethyl)pyrimidin-4(3H)-one]",983,8.7
"Nc1ccnc(-c2nc(C(F)(F)F)c(Oc3ccc(Cl)c(Cl)c3)c(=O)[nH]2)c1 [Example 128, 2-(4-aminopyridin-2-yl)-5-(3,4-dichlorophenoxy)-6-(trifluoromethyl)pyrimidin-4(3H)-one]",360,3.2
"CC(C)Oc1ccnc(-c2nc(C(F)(F)F)c(Oc3ccc(Cl)c(C(F)(F)F)c3)c(=O)[nH]2)c1 [Example 150, 5-[4-chloro-3-(trifluoromethyl)phenoxy]-2-(4-isopropoxypyridin-2-yl)-6-(trifluoromethyl)pyrimidin-4(3H)-one]",1340,23

# Continued, values first:
IC50 (murine CCR2) [nM],IC50 (human CCR2) [nM],Compound
47,0.3,Cc1ccc(Oc2c(C(F)(F)F)nc(-c3cc[nH]n3)[nH]c2=O)cc1Cl [Example 224]
447,1.3,COCc1cc(-c2nc(C(F)(F)F)c(Oc3ccc(Cl)c(C(F)(F)F)c3)c(=O)[nH]2)no1 [Example 221]
196,1.8,"CS(=O)(=O)c1cccnc1-c1nc(C(F)(F)F)c(Oc2ccc(Cl)c(C(F)(F)F)c2)c(=O)[nH]1 [Example 266, 5-[4-Chloro-3-(trifluoromethyl)phenoxy]-2-[3-(methylsulphonyl)pyridin-2-yl]-6-(trifluoromethyl)pyrimidin-4(3H)-one]"
44,0.4,O=c1[nH]c(-c2ccon2)nc(C(F)(F)F)c1Oc1ccc(Cl)c(C(F)(F)F)c1 [Example 230]
53,0.4,"COc1cn(C)nc1-c1nc(C(F)(F)F)c(Oc2ccc(Cl)c(C(F)(F)F)c2)c(=O)[nH]1 [Example 264, 5-[4-Chloro-3-(trifluoromethyl)phenoxy]-2-(4-methoxy-1-methyl-1H-pyrazol-3-yl)-6-(trifluoromethyl)pyrimidin-4(3H)-one]"
5530,123,O=c1[nH]c(-n2cnc(Cl)n2)nc(C(F)(F)F)c1Oc1ccc(Cl)c(Cl)c1 [Example 247]
44,0.5,O=c1[nH]c(-c2ccon2)nc(C(F)(F)F)c1Oc1ccc(Cl)c(Cl)c1 [Example 229]
4230,240,O=c1[nH]c(-n2cc(C(F)(F)F)cn2)nc(C(F)(F)F)c1Oc1ccc(Cl)c(Cl)c1 [Example 253]
949,9.9,O=c1[nH]c(-n2ncc3ncccc32)nc(C(F)(F)F)c1Oc1ccc(Cl)c(Cl)c1 [Example 258]
